We go through eight compounds from publication PMC12186844 (ACS Chemical Neuroscience, 2025).

Read-outs that look alike come from different tables or passages of the source.

One assay has as its system D1Rs. As to conditions: earlier report, reference number not given; cited from earlier work.
The target of assay [1] is T1, D2LR (Homo sapiens, UniProt P14416). Briefly: inhibition of forskolin-stimulated cAMP production, BRET biosensor.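 Note: Flp-In-CHO cells stably expressing CAMYEL cAMP BRET sensor, agonist plus 10 µM forskolin, net BRET after forskolin-vehicle subtraction, parameters from complete operational model of allosterism and agonism.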 In kind it is cell-based.
Protocol: Flp-In-CHO cells stably coexpressing the CAMYEL biosensor and DRs were plated into white 96-well CulturPlates (Revvity) and grown overnight. The cells were equilibrated in Hank’s balanced salt solution (HBSS) at 37 °C (or 25 °C when indicated) before starting the experiment. The cells were costimulated with the agonists and 10 μM forskolin for the indicated time frames when the BRET readings were captured. Coelenterazine (Nanolight Technology, AZ) was added at a final concentration of 5 μM at least 3 min prior to measurement. […] Net BRET was determined by subtraction of the vehicle control coadded with 10 μM forskolin.
Dose–response curves were fitted using the following three-parameter equation: response=bottom+top−bottom/1+10^(logEC50−log[A]) 5 where top and bottom represent the maximal and minimal asymptote of the dose response curve, [A] is the molar concentration of the agonist, and EC50 is the molar concentration of the agonist required to give a response half-way between bottom and top.
Assay [2] has as its target T1, D2LR. Briefly: whole cell [3H]raclopride binding assay.
Protocol: The binding reaction was conducted in HBSS for 1 h at 37 °C. The adherent cells were washed two times with cold 0.9% NaCl solution, and 100 μL/well scintilation liquid was added to the plate. The remaining radioactivity was detected in a MicroBeta counter.
[3] abbreviates: orthosteric agonist efficacy, operational model.
The mark [4] stands for this setting: orthosteric ligand, radioligand binding assay.

T1 sequence (P14416 whole entry): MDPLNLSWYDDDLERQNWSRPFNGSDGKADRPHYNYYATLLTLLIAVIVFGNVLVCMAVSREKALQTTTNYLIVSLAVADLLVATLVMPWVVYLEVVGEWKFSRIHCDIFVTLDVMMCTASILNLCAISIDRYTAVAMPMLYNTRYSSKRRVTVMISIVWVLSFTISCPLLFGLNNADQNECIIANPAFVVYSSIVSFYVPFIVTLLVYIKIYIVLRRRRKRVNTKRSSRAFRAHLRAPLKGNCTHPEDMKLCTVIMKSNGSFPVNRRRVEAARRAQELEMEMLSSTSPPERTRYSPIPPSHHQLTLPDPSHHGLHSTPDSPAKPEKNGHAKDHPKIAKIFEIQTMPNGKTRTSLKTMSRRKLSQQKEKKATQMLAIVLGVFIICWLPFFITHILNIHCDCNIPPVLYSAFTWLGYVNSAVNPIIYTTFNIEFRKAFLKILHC

`CC1Cc2ccccc2N1C(=O)c1nc2ccccc2s1` (stereo not shown) [D2 PAM1, 1,3-benzothiazol-2-yl(2-methyl-2,3-dihydro-indol-1-yl)methanone]: the “activity at D1Rs” value in the assay on D1Rs is given as “does not display activity”.

At D2LR [1] (setting [3]), `CCCN1CCC[C@@H](c2cccc(O)c2)C1` [S-(3)-PPP, reference compound] gave a LogτA of 0.33 ± 0.05 and a τA of 2.14.

On D2LR [1], `CN1CCc2cccc3c2[C@H]1Cc1ccc(O)c(O)c1-3` [apomorphine, reference compound] returned a LogτA of 0.93 ± 0.02 and a τA of 8.5.

At D2LR [1], `CC(C)C[C@H]1C(=O)N2CCC[C@H]2[C@]2(O)O[C@](NC(=O)[C@@H]3C=C4c5cccc6[nH]c(Br)c(c56)C[C@H]4N(C)C3)(C(C)C)C(=O)N12` [bromocriptine, reference compound] gave a LogτA of 0.66 ± 0.04 and a τA of 4.6. Besides, at D2LR [2], the Kd was 1.32 nM.

At D2LR [1] (setting [3]), `CCCN1C[C@H](CSC)C[C@@H]2c3cccc4[nH]cc(c34)C[C@H]21` [pergolide, reference compound] returned a LogτA of 1.01 ± 0.03 and a τA of 10.2.

For `CCCN[C@H]1CCc2nc(N)sc2C1` [pramipexole, reference compound], on D2LR [1], the LogτA is 1.05 ± 0.04 and the τA was 11.2.

On to `CCCN(CCC)CCc1cccc2c1CC(=O)N2` [ropirinole, reference compound], for which, on D2LR [1] (setting [3]), the LogτA was found to be 1.14 ± 0.08 and the τA was determined as 13.8. Also, at D2LR [2] (setting [4]), the KA turned out to be 1350 nM and the pKA is given as 5.87 ± 0.18.

Regarding `CCCN(CCc1cccs1)[C@H]1CCc2c(O)cccc2C1` [rotigotine, reference compound], on D2LR [1], the LogτA was 1.17 ± 0.05 and the τA amounted to 14.8. Besides, at D2LR [2], the Kd was 3.09 nM.
